According to PubChem BioAssay (NCI):
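How tested: cells in 96-well plates exposed to compound for 48 hours at five concentrations. GI50: concentration for 50% inhibition of growth. TGI denotes the concentration required for complete inhibition of growth.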

Tests used:
Experiment in all cases: NCI-60 cell line screen, 48 h
SK-MEL-28 melanoma = system: SK-MEL-28 melanoma
UACC-257 melanoma = system: UACC-257 melanoma
NCI-H460 lung = system: NCI-H460 lung
MOLT-4 leukemia = system: MOLT-4 leukemia
SNB-19 CNS = system: SNB-19 CNS
IGROV1 ovarian = system: IGROV1 ovarian
OVCAR-4 ovarian = system: OVCAR-4 ovarian
RPMI-8226 leukemia = system: RPMI-8226 leukemia
HT29 colon = system: HT29 colon
SK-MEL-5 melanoma = system: SK-MEL-5 melanoma

Compound | TGI (SK-MEL-28 melanoma) [µM] | TGI (UACC-257 melanoma) [µM] | TGI (NCI-H460 lung) [µM] | TGI (MOLT-4 leukemia) [µM] | TGI (SNB-19 CNS) [µM] | TGI (IGROV1 ovarian) [µM] | TGI (OVCAR-4 ovarian) [µM] | TGI (RPMI-8226 leukemia) [µM] | TGI (HT29 colon) [µM] | TGI (SK-MEL-5 melanoma) [µM] | GI50 (SK-MEL-28 melanoma) [µM] | GI50 (UACC-257 melanoma) [µM] | GI50 (NCI-H460 lung) [µM] | GI50 (MOLT-4 leukemia) [µM] | GI50 (SNB-19 CNS) [µM] | GI50 (IGROV1 ovarian) [µM] | GI50 (OVCAR-4 ovarian) [µM] | GI50 (RPMI-8226 leukemia) [µM] | GI50 (HT29 colon) [µM] | GI50 (SK-MEL-5 melanoma) [µM]
CC(C(=O)c1ccc(Cl)cc1)C1OC(=O)C(Cl)=C1Cl (configuration not stated) | 57.1 | > 100 | > 100 | 64 | > 100 | > 100 | 64.6 | 70.8 | > 100 | > 100 |  |  |  |  |  |  |  |  |  | 
O=C1c2ccn(CCCCN3CCCCC3)c2C(=O)c2c1c(O)c1ccccc1c2O | 44.2 | 12.2 | 16.3 | > 100 | > 90.5 | > 100 | > 61.1 | 9.29 | > 100 | 33.9 | 3.73 | 5.83 | 3.88 | 3.49 | 19.1 | 11.1 | 9.48 | 2.74 | 4.14 | 13.3
NCCP(=O)(O)O | > 100 | > 100 | > 100 | > 100 | > 100 | > 100 | > 100 | > 100 | > 100 | > 100 |  |  |  |  |  |  |  |  |  | 
CC(CN1CCN(CC(C)Nc2ccnc3cc(Cl)ccc23)CC1)Nc1ccnc2cc(Cl)ccc12 (configuration not stated) | 10.4 | 29.5 | 14.3 | > 100 | > 79.9 | > 100 | > 61.6 | > 20.1 | > 53.8 | 23.5 |  |  |  |  |  | 9.37 |  |  |  | 
CC(O)(CNS(=O)(=O)c1ccccc1)c1ccccc1 (configuration not stated) | > 100 |  | > 100 |  | > 100 | > 100 | > 100 | > 100 | > 100 | > 100 |  |  |  |  |  |  |  |  |  | 
COc1cc(C2=NN(c3ccc(S(N)(=O)=O)cc3)C(c3ccc(Cl)cc3)C2)cc(OC)c1OC (configuration not stated) | > 100 | > 100 | > 100 | > 100 | > 100 | > 100 | 9.46 | > 100 | > 100 | 18 | 3.78 | 9.5 | 3.95 | 4.81 | 5.48 | 8.09 | 3.16 | 3.7 | 4.15 | 3.35
COc1cc(-c2cc(/C=C3\C(=O)Nc4ccccc43)[nH]n2)cc(OC)c1OC | 11.3 | 6.56 | 19 | 6.71 | 32.5 | 14.8 | 8.98 | 4.37 | 17.7 | 3.45 | 2.95 | 2.37 | 4.35 | 2.45 | 4.13 | 3.14 | 1.91 | 1.77 | 3.15 | 1.57
CCc1c(O)c2c(c(O)c1C(C)=O)C(=O)c1c(cc(O)c(C(=O)O)c1C(=O)O)C2=O | > 100 | > 100 | > 100 | > 100 | > 100 | > 100 | > 100 | > 100 | > 100 | > 100 |  |  |  |  |  |  |  |  |  | 
O=C(O)c1cscc1Cc1cccs1 | > 100 | > 100 | > 100 | > 100 | > 100 | > 100 | > 100 | > 100 | > 100 | > 100 |  |  |  |  |  |  |  |  |  | 
CCc1cccc(C(C)CC)c1NC(=O)C(=O)C(CC(=O)Nc1ccc(Cl)c(Cl)c1)C(=O)OC (configuration not stated) | > 100 | > 100 | > 100 | > 100 | > 100 | > 100 | > 100 | > 100 | > 100 |  |  |  |  |  |  |  |  |  |  | 
Cc1cc(C)n(C(=O)c2nn(-c3ccc(Cl)cc3)cc2O)n1 | > 100 | > 100 | 6.04 |  | > 100 | 73.3 | > 100 | 17 | > 100 | 23.3 | 6.28 | 16.6 | 2.38 |  | 3.6 | 3.16 | 9.19 | 3.34 | 32.9 | 6.76
CCCCN(CCCC)C(=O)C(=O)C(C)C(=O)CC (configuration not stated) | > 100 | > 100 | > 100 | > 100 | > 100 | > 100 | > 100 | > 100 | > 100 |  |  |  |  |  |  |  |  |  |  | 
Cn1c2ccccc2c(=O)c2c([N+](=O)[O-])ccc(NCCN)c21 | 29.2 | 26.9 | 22.8 | 7.95 | 27.8 | 27.2 | 24.9 |  | 17.3 | 27.2 |  |  |  |  |  |  |  |  |  | 
COC(=O)OCc1ccc2c(c1)C(=O)c1c-2n(CCCBr)c(=O)c2cc([N+](=O)[O-])ccc12 | > 100 | > 100 | > 100 | > 100 | > 100 | > 100 | > 100 |  | > 100 | > 100 | > 100 | > 100 | > 100 | 31.6 | 79 | 54.3 | > 100 |  | > 100 | > 100
O=[N+]([O-])c1ccc(/C=C(/c2ccc([N+](=O)[O-])o2)S(=O)(=O)c2ccccc2)o1 | 33.6 | 3.66 | 60.1 |  | 35.7 | 30.6 | 15.5 | 0.483 | 13.6 | 24.4 |  |  |  |  |  |  |  |  |  | 
CC(=O)c1cc2c(c3ccsc13)-c1ccccc1CC2 | > 100 | > 100 | > 100 |  | > 100 | > 100 | > 100 | 75 | > 100 | 35.7 | > 100 | 47.1 | 30.1 |  | > 100 | 36 | > 100 | 25.8 | 58.4 | 12.7
CCN(CC)CCOc1ccc2c(c1)C(=O)c1cc(OCCN(CC)CC)ccc1-2 | 29.4 | 24.9 | 15.2 | 23.9 | 61.7 | 43.2 | 38.7 |  | 10.4 | 24.6 | 15.1 | 11.5 | 4.03 | 5.27 | 26.3 | 6.65 | 5.69 |  | 2.58 | 12.2
